From patent US20170119776A1, “CHIRAL 2,5-DISUBSTITUTED CYCLOPENTANECARBOXYLIC ACID DERIVATIVES AND USE THEREOF” (BAYER PHARMA AKTIENGESELLSCHAFT, priority 2014, published 2017) come the findings set out here.

A value given as a limit tells only on which side of the number the result lay.

What all share (format): biochemical
For one experiment, the target named is T1, MMP-12 of the mouse (Mus musculus, UniProt P34960).
T1 construct: purchased R&D Systems 3467-MP
Briefly: In vitro MMP-12 inhibition test of the mouse (standard / high-sensitivity). An excerpt: (§1) The activity strength of the compounds according to the invention towards other MMPs (and therefore their selectivity) is likewise ascertained in in vitro inhibition tests. The MMP-mediated amidolytic cleavage of a suitable peptide substrate also leads here to a fluorescent light increase. The signal intensity of the fluorescent light is directly proportional to the enzyme activity. The active concentration of a test compound at which half of the enzyme is inhibited (50% signal intensity of the fluorescent light) is given as IC50 value.
Recombinant MMP-12 of the mouse (R&D Systems, 3467-MP) is autocatalytically activated in accordance with the manufacturer's instructions. 1 μl of the test compound to be analysed (as a solution in DMSO, suitable concentrations e.g. 1 nM to 30 μM) is pipetted into 24 μl of activated enzyme (final concentration e.g. 1 nM) in reaction buffer (50 mM Tris/HCl pH 7.5, 10 mM CaCl2, 150 mM NaCl, 0.05% Brij®-35) in a white 384-hole microtiter plate (MTP). The enzymatic reaction is started by adding the intramolecularly quenched substrate Mca-Lys-Pro-Leu-Gly-Leu-Dpa(Dnp)-Ala-Arg-NH2 (final concentration e.g. 5 μM; R&D Systems, ES-010), such that a total test volume of 50 μl results. The progress of the MMP-12 reaction is measured by measuring the fluorescence intensity (excitation 320 nm, emission 410 nm) over a suitable period (e.g. over 120 min at a temperature of 32° C.).
If subnanomolar IC values are produced for high-potency test substances in the above-described MMP-12 inhibition test of the mouse, then a modified test is used for their more precise determination. Here, a ten-fold lower enzyme concentration is used (final concentration e.g. 0.1 nM), in order to achieve an increased sensitivity of the test. The incubation time of the test is correspondingly chosen to be longer (e.g. 16 hours).
(§2) Tables 3A and 3B below give the IC50 values from these tests for the inhibition of rodent MMPs for representative embodiment examples of the present invention and also for two structurally related comparison compounds from the prior art (as racemate and separated enantiomer)→(in part as average values from several independent individual determinations and rounded to two significant places). The IC50 values were determined for racemates and enantiomers from differently generated DMSO stock solutions. Whereas an automatically created DMSO stock solution from the internal substance logistics was used for racemates by means of a standard method, in the case of enantiomers, in each case a freshly produced, manually prepared DMSO stock solution was used for a more precise direct comparison of the enantiomers with one another.

In the next experiment the target is T2, MMP-2 of the mouse (Mus musculus, UniProt P33434).
T2 construct: purchased R&D Systems 924-MP
Briefly: In vitro MMP-2 inhibition test of the mouse.
Source text: as §1
Recombinant MMP-2 of the mouse (R&D Systems, 924-MP) is chemically activated in accordance with the manufacturer's instructions using APMA. 1 μl of the test compound to be analysed (as a solution in DMSO, suitable concentrations e.g. 1 nM to 30 μM) is pipetted into 24 μl of activated enzyme (final concentration e.g. 0.1 nM) in reaction buffer (50 mM Tris/HCl pH 7.5, 10 mM CaCl2, 150 mM NaCl, 0.05% Brij®-35) in a white 384-hole microtiter plate (MTP). The enzymatic reaction is started by adding the intramolecularly quenched substrate Mca-Pro-Leu-Gly-Leu-Dpa(Dnp)-Ala-Arg-NH2 (final concentration e.g. 10 μM; R&D Systems, ES-001), such that a total test volume of 50 μl results. The progress of the MMP-2 reaction is measured by measuring the fluorescence intensity (excitation 320 nm, emission 410 nm) over a suitable period (e.g. over 120 min at a temperature of 32° C.).
as §2

Another experiment has as its target T3, MMP-8 of the rat (Rattus norvegicus, UniProt O88766).
T3 construct: purchased R&D Systems 3245-MP
Briefly: In vitro MMP-8 inhibition test of the rat.
Source text: as §1
Recombinant MMP-8 of the rat (R&D Systems, 3245-MP) is chemically activated in accordance with the manufacturer's instructions using APMA. […] of the test compound to be analysed (as a solution in DMSO, suitable concentrations e.g. 1 nM to 30 μM) is pipetted into 24 μl of activated enzyme (final concentration e.g. 1 nM) in reaction buffer (50 mM Tris/HCl pH 7.5, 10 mM CaCl2, 150 mM NaCl, 0.05% Brij®-35) in a white 384-hole microtiter plate (MTP). The enzymatic reaction is started by adding the intramolecularly quenched substrate Mca-Lys-Pro-Leu-Gly-Leu-Dpa(Dnp)-Ala-Arg-NH2 (final concentration e.g. 5 μM; R&D Systems, ES-010), such that a total test volume of 50 μl results. The progress of the MMP-8 reaction is measured by measuring the fluorescence intensity (excitation 320 nm, emission 410 nm) over a suitable period (e.g. over 120 min at a temperature of 32° C.).
as §2

T3 sequence (O88766 102-466): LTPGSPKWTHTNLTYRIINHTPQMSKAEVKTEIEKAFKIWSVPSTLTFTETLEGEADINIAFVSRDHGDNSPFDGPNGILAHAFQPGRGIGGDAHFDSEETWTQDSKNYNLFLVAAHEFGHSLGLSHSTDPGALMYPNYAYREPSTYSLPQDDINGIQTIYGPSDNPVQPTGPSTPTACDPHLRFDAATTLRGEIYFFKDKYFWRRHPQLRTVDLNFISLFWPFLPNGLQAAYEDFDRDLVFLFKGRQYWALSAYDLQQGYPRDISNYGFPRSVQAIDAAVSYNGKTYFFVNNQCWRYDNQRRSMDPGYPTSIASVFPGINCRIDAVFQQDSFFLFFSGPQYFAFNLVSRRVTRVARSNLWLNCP
T2 sequence (P33434 110-662): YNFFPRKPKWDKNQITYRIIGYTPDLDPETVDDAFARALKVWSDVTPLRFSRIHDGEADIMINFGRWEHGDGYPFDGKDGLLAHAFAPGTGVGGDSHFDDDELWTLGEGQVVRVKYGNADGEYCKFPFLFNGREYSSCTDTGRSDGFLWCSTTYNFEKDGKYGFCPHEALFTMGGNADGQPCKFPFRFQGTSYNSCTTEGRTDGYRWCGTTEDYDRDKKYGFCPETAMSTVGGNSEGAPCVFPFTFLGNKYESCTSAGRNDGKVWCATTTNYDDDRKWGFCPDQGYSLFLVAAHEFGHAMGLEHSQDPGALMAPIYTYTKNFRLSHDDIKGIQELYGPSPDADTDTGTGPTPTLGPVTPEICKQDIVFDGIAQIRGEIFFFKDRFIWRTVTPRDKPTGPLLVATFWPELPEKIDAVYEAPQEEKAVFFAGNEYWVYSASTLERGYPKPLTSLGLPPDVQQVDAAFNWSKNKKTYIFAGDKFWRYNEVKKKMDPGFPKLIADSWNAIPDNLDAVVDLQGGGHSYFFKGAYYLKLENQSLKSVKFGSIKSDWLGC
T1 sequence (P34960 110-473): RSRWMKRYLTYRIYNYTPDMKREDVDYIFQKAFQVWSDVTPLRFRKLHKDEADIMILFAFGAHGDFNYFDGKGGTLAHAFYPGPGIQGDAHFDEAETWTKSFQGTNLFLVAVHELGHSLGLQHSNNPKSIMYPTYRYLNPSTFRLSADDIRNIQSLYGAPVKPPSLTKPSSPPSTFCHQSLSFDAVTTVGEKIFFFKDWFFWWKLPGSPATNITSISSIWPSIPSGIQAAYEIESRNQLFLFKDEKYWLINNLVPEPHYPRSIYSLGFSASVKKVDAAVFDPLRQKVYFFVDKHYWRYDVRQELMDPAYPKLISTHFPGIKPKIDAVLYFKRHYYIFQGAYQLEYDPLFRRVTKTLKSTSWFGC

Broadly, the IC50 is the concentration that gives 50% inhibition. Regarding `O=C(O)[C@H]1[C@H](Cn2nnc3ccccc3c2=O)CC[C@@H]1C(=O)c1ccc(-c2ccc(Cl)cc2)cc1` (racemic) [Comparative Example A-1, (1RS,2RS,5SR)-2-[(4′-chlorobiphenyl-4-yl)carbonyl]-5-[(4-oxo-1,2,3-benzotriazin-3(4H)-yl)methyl]cyclopentanecarboxylic acid (racemate)], the half-maximal inhibitory concentration (IC50) against MMP-12 of the mouse was under 0.61 nM; against MMP-2 of the mouse, 1.3 nM; on MMP-8 of the rat, 1.4 nM.
Regarding `CCCCCOc1ccc(C(=O)CC(CCn2nnc3ccccc3c2=O)C(=O)O)cc1` (racemic) [Comparative Example B-1, (+/−)-4-Oxo-2-[2-(4-oxo-1,2,3-benzotriazin-3(4H)-yl)ethyl]-4-[4-(pentyloxy)phenyl]butanoic acid (racemate)], the results for the IC50 against MMP-12 of the mouse, against MMP-2 of the mouse and against MMP-8 of the rat were 32 nM, 610 nM and 3500 nM, respectively.
The corresponding values for `O=C(O)[C@H]1[C@H](Cn2nnc3ccccc3c2=O)CC[C@@H]1C(=O)c1ccc(OCc2ccccc2)cc1` (racemic) [Example 1, (+/−)-(1RS,2RS,5SR)-2-[4-(Benzyloxy)benzoyl]-5-[(4-oxo-1,2,3-benzotriazin-3(4H)-yl)methyl]cyclopentanecarboxylic acid (racemate)] are 0.54 nM, 33 nM and 100 nM.
In the same order, the values of `CCCCCOc1ccc(C(=O)CC(CCn2nnc3ccccc3c2=O)C(=O)O)cc1` (single isomer, unassigned; enantiomer 1) [Comparative Example B-2, (+)-4-Oxo-2-[2-(4-oxo-1,2,3-benzotriazin-3(4H)-yl)ethyl]-4-[4-(pentyloxy)phenyl]butanoic acid (enantiomer 1)] are 18 nM, 145 nM and 1040 nM.
The corresponding values for `O=C(O)[C@@H]1[C@@H](Cn2nnc3ccccc3c2=O)CC[C@H]1C(=O)c1ccc(-c2ccc(Cl)cc2)cc1` (single isomer, unassigned; enantiomer 2) [Comparative Example A-3, (1RS,2RS,5SR)-2-[(4′-Chlorobiphenyl-4-yl)carbonyl]-5-[(4-oxo-1,2,3-benzotriazin-3(4H)-yl)methyl]cyclopentanecarboxylic acid (enantiomer 2)] are 0.1 nM, under 0.61 nM and 1.4 nM.
With `O=C(O)[C@H]1[C@H](Cn2nnc3ccccc3c2=O)CC[C@@H]1C(=O)c1ccc(OCc2ccccc2)cc1` [Example 2, (+)-(1S,2S,5R)-2-[4-(Benzyloxy)benzoyl]-5-[(4-oxo-1,2,3-benzotriazin-3(4H)-yl)methyl]cyclopentanecarboxylic acid], the IC50 against MMP-12 of the mouse came out at 0.13 nM; on MMP-2 of the mouse, 16.5 nM; against MMP-8 of the rat, 38.5 nM.
